The source of these data is PubChem BioAssay AID264 (DTP/NCI, 2004).

Several values for one entry are separate records, joined by “and”; a condition that tells them apart may be missing. Identical values can stand only once. Inconclusive results are not listed.

In this assay the test system is nude mice, LX-1 lung xenograft intrarenal, tumor weight T/C. Briefly: NCI In Vivo Anticancer Drug Screen. Data for tumor model Human Lung LX-1 Xenograft (intrarenal inoculation) in NU/NU Swiss (nude) mice. The conditions noted are these: endpoint: mean tumor weight change, higher = larger tumour. The procedure, abridged: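 Antitumor effect is expressed as a ratio: the mean tumor measurement of the drug-treated group relative to that of the vehicle-dosed control group.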

Where [1] appears, read: dose: 50.0 mg/kg/injection, schedule: Q01DX010 (sc), vehicle: saline.
[2] abbreviates: dose: 100.0 mg/kg/injection, schedule: Q01DX010 (sc), vehicle: saline.
The mark [3] stands for this setting: dose: 50.0 mg/kg/injection, schedule: Q01DX010 (sc), vehicle: saline with Tween-80.
Setting [4] is: dose: 100.0 mg/kg/injection, schedule: Q01DX010 (sc), vehicle: saline with Tween-80.
[5] abbreviates: dose: 400.0 mg/kg/injection, schedule: Q01DX010 (sc), vehicle: saline with Tween-80.
The mark [6] stands for this setting: dose: 200.0 mg/kg/injection, schedule: Q01DX010 (sc), vehicle: saline with Tween-80.
Setting [7] is: dose: 800.0 mg/kg/injection, schedule: Q01DX010 (sc), vehicle: saline with Tween-80.
The mark [8] stands for this setting: dose: 300.0 mg/kg/injection, schedule: Q04DX003 (sc), vehicle: Klucel (hydroxypropylcellulose) (HPC).
Setting [9] is: dose: 600.0 mg/kg/injection, schedule: Q04DX003 (sc), vehicle: Klucel (hydroxypropylcellulose) (HPC).
The mark [10] stands for this setting: dose: 1200.0 mg/kg/injection, schedule: Q04DX003 (sc), vehicle: Klucel (hydroxypropylcellulose) (HPC).
[11] abbreviates: dose: 2400.0 mg/kg/injection, schedule: Q04DX003 (sc), vehicle: Klucel (hydroxypropylcellulose) (HPC).
[12] abbreviates: dose: 150.0 mg/kg/injection, schedule: Q04DX003 (sc), vehicle: saline with Tween-80.
Setting [13] is: dose: 300.0 mg/kg/injection, schedule: Q04DX003 (sc), vehicle: saline with Tween-80.
Where [14] appears, read: dose: 1200.0 mg/kg/injection, schedule: Q04DX003 (sc), vehicle: saline with Tween-80.

As for `C1CN2CCC1CC2`, the T/C (dose: 4.69 mg/kg/injection, schedule: Q04DX003 (sc), vehicle: saline with Tween-80) was 96 % of control; the T/C (dose: 9.38 mg/kg/injection, schedule: Q04DX003 (sc), vehicle: saline with Tween-80) was 73 % of control; the T/C (dose: 18.75 mg/kg/injection, schedule: Q04DX003 (sc), vehicle: saline with Tween-80) was 68 % of control.
For the molecule `COc1cccc2c1C(=O)c1c(O)c3c(c(O)c1C2=O)C[C@@](O)(C(C)=O)C[C@@H]3OC1CC(N(Cc2ccccc2)Cc2ccccc2)C(O)C(C)O1` (some centres undefined), for the setting “dose: 25.0 mg/kg/injection, schedule: Q01DX010 (sc), vehicle: water”, the T/C is 64 % of control.
As to `O.O.[NH-]C1CCCCC1[NH-].[Pt+2]` (centres undefined), the T/C is, setting by setting: (dose: 5.0 mg/kg/injection, schedule: Q01DX010 (sc), vehicle: dextrose) 68 % of control; (dose: 10.0 mg/kg/injection, schedule: Q01DX010 (sc), vehicle: dextrose) 74 % of control; (dose: 20.0 mg/kg/injection, schedule: Q01DX010 (sc), vehicle: dextrose) 57 % of control.
As for `O=c1[nH]c(=O)n(C2CC(O)C(CO)O2)cc1C(F)(F)F` (centres undefined), the T/C was 91 % of control under setting [1]; 100 % of control under setting [2]; 51 % of control (dose: 200.0 mg/kg/injection, schedule: Q01DX010 (sc), vehicle: saline); 30 % of control (dose: 400.0 mg/kg/injection, schedule: Q01DX010 (sc), vehicle: saline).
Consider `CN1C(=O)NC(c2ccc(Cl)cc2)(c2ccc(Cl)cc2)C1=O`, for which the T/C was 212 % of control under setting [3], 191 % of control under setting [4] and 64 % of control under setting [5].
For the molecule `CCCCCCCC(=O)[O][Hg][CH2]C1COC([CH2][Hg][O]C(=O)CCCCCCC)CO1` (centres undefined), the T/C is 224 % of control (dose: 6.25 mg/kg/injection, schedule: Q01DX010 (sc), vehicle: saline with Tween-80); 106 % of control (dose: 25.0 mg/kg/injection, schedule: Q01DX010 (sc), vehicle: saline with Tween-80); 75 % of control and 79 % of control under setting [3]; 61 % of control under setting [4]; 42 % of control under setting [6]; 24 % of control under setting [5].
In the case of `O=C(O)CCCCCCCC(=O)O`, the T/C was 105 % of control (dose: 150.0 mg/kg/injection, schedule: Q04DX003 (sc), vehicle: distilled water + Tween-80); 79 % of control (dose: 300.0 mg/kg/injection, schedule: Q04DX003 (sc), vehicle: distilled water + Tween-80); 60 % of control (dose: 600.0 mg/kg/injection, schedule: Q04DX003 (sc), vehicle: distilled water + Tween-80); 50 % of control (dose: 1200.0 mg/kg/injection, schedule: Q04DX003 (sc), vehicle: distilled water + Tween-80).
For `Clc1ccc(CN2COc3c(ccc4cccnc34)C2)cc1Cl`, the T/C runs as follows: under setting [4], 110 % of control; under setting [6], 87 % of control; under setting [5], 97 % of control; under setting [7], 110 % of control.
Turning to `O=c1[nH]cnc2n[nH]nc12`, the T/C under setting [8] was 100 % of control, the T/C under setting [9] is 92 % of control, the T/C under setting [10] was 35 % of control and the T/C under setting [11] was 27 % of control.
For `O=C1C=CC(=O)N1c1ccc(Cl)cc1`, the T/C is, setting by setting: (dose: 37.5 mg/kg/injection, schedule: Q04DX003 (sc), vehicle: Klucel (hydroxypropylcellulose) (HPC)) 116 % of control; (dose: 75.0 mg/kg/injection, schedule: Q04DX003 (sc), vehicle: Klucel (hydroxypropylcellulose) (HPC)) 123 % of control; (dose: 150.0 mg/kg/injection, schedule: Q04DX003 (sc), vehicle: Klucel (hydroxypropylcellulose) (HPC)) 85 % of control.
Take `C=C1CC2(OC1=O)C(=O)N(C)c1ccc(I)cc12` (centres undefined): the T/C is 68 % of control (dose: 150.0 mg/kg/injection, schedule: Q04DX003 (sc), vehicle: suspension in saline); 34 % of control (dose: 300.0 mg/kg/injection, schedule: Q04DX003 (sc), vehicle: suspension in saline); 34 % of control (dose: 600.0 mg/kg/injection, schedule: Q04DX003 (sc), vehicle: suspension in saline); 62 % of control (dose: 1200.0 mg/kg/injection, schedule: Q04DX003 (sc), vehicle: suspension in saline).
For `C[C@]12CC[C@H](O)CC1=CC[C@@H]1[C@@H]2CC[C@]2(C)C(=O)CC[C@@H]12`, the T/C is 116 % of control under setting [12], 115 % of control under setting [13] and 107 % of control under setting [14].
For the molecule `COC1=CC(=O)C(OC)=C(OC)C1=O`, the T/C (dose: 38.0 mg/kg/injection, schedule: Q04DX003 (sc), vehicle: saline with Tween-80) was 122 % of control; the T/C (dose: 75.0 mg/kg/injection, schedule: Q04DX003 (sc), vehicle: saline with Tween-80) was 72 % of control; the T/C under setting [12] was 104 % of control; the T/C under setting [13] was 122 % of control.
Regarding `CN(C=O)C(C(=O)Nc1cccc2c(OC(=O)C(N(C)C=O)(N(C)C=O)N(C)C=O)c(N=Nc3ccc(S(=O)(=O)Nc4nccs4)cc3)cc(N=Nc3ccc(S(=O)(=O)Nc4nccs4)cc3)c12)(N(C)C=O)N(C)C=O` (tested in a mixture with another compound), the T/C is, setting by setting: under setting [12], 109 % of control; under setting [13], 71 % of control; (dose: 600.0 mg/kg/injection, schedule: Q04DX003 (sc), vehicle: saline with Tween-80) 120 % of control; under setting [14], 95 % of control.
As to `O=C1c2c(O)ccc(O)c2C(=O)c2c(NCCNCCO)ccc(NCCNCCO)c21`, the T/C is, setting by setting: (dose: 0.5 mg/kg/injection, schedule: Q01DX010 (sc), vehicle: acid diluted with saline) 57 % of control; (dose: 0.5 mg/kg/injection, schedule: Q01DX010 (sc), vehicle: water) 47 % of control; (dose: 1.0 mg/kg/injection, schedule: Q01DX010 (sc), vehicle: acid diluted with saline) 40 % of control; (dose: 1.0 mg/kg/injection, schedule: Q01DX010 (sc), vehicle: water) 34 % of control; (dose: 2.0 mg/kg/injection, schedule: Q01DX010 (sc), vehicle: acid diluted with saline) 52 % of control; (dose: 5.0 mg/kg/injection, schedule: Q04DX003 (sc), vehicle: water) 53 % of control. Also, the T/C (dose: 10.0 mg/kg/injection, schedule: Q04DX003 (sc), vehicle: water) is 26 % of control.
On to `S=C(Nc1ccc(Cl)c(Cl)c1)N1c2ccccc2-n2cccc2C1c1cccnc1` (centres undefined), for which the T/C is, setting by setting: under setting [8], 58 % of control; under setting [9], 104 % of control; under setting [10], 71 % of control; under setting [11], 65 % of control.
Take `CCO/C=C1\SC(=S)N(c2ccccc2C)C1=O`: the T/C under setting [4] was 26 % of control, the T/C under setting [6] is 64 % of control, the T/C under setting [5] was 76 % of control and the T/C under setting [7] is 89 % of control.
Consider `CC(C)CCCCCCCCCCCCC(=O)NCC(=O)NC1C(O)C(O)C(Nc2ncnc3nc[nH]c23)OC1C(O)CO` (centres undefined), for which the T/C is 84 % of control (dose: 0.4 mg/kg/injection, schedule: Q01DX010 (sc), vehicle: saline); 62 % of control (dose: 0.8 mg/kg/injection, schedule: Q01DX010 (sc), vehicle: saline); 48 % of control (dose: 1.6 mg/kg/injection, schedule: Q01DX010 (sc), vehicle: saline).
Consider `Oc1ccc(O)cc1`, for which the T/C runs as follows: (dose: 25.0 mg/kg/injection, schedule: Q04DX003 (sc), vehicle: saline) 102 % of control; (dose: 50.0 mg/kg/injection, schedule: Q04DX003 (sc), vehicle: saline) 85 % of control and 98 % of control; (dose: 100.0 mg/kg/injection, schedule: Q04DX003 (sc), vehicle: saline) 92 % of control and 93 % of control; (dose: 200.0 mg/kg/injection, schedule: Q04DX003 (sc), vehicle: saline) 109 % of control.
As for `c1ccc(CN2CCOC2)cc1`, the T/C is 81 % of control under setting [1] and 165 % of control under setting [2].
